This note sets out measurements from patent US7727511B2, “Agents for imaging soluble a-beta” (priority 2003, dated 2010).

Several values for one entry are separate records, joined by “and”; a condition that tells them apart may be missing. Identical values can stand only once.

Test [1] addresses T1, beta-amyloid 1-42 oligomer (20% biotin) (Homo sapiens, UniProt P05067).
T1 construct: 12 μg beta-amyloid 1-42 oligomer (20% biotin); purchased Bachem H-5642; host or cells: synthetic peptide
The experiment in a line: SPA competition binding assay against 3H-49b on soluble oligomers. The conditions noted are these: 50 uM unlabeled competitor, 130 nM 3H-49b. On the procedure: Lyophilized Streptavidin-Ysi beads (GE Healthcare) were reconstituted to 100 mg/mL in deioniozed water, and then further diluted in deionized water to give a suspension containing 0.25 mg/10 μl water. Unlabeled 49b and other benzofuran probes were dissolved in DMSO to give a final stock concentration of 15 mM.
For the saturation-binding assay, isotopic dilution of radiolabeled 49b with unlabeled 49b was performed. ^3H-49b was added to 500 uM of unlabeled 49b to a final concentration of 50 μCi/mL ^3H-49b. The probe solution was then serially diluted in PBS to give six solutions giving 6.6, 13.1, 26.3, 52.5, 105, or 210 uM in the final assay well. Each concentration of the probe solution was incubated with 12 μg beta-amyloid 1-42 oligomer (20% biotin) or 1-40 (20% biotin) fibrils in a total volume of 90 μl. Assays were incubated at room temp for 2 hrs before addition of 10 μL YSi-streptavidin (0.25 mg) SPA bead. Assays were set-up in triplicate in 96-well NBS plates (Costar). Assays were incubated overnight and counted the following morning. […] The specific activities of the four probes were different, however the level of activity was the same at the concentrations where the probes were tested. For this assay, 130 nM of ^3H-49b, 90 nM ^3H-cimetidine, 14 nM ^3H-caffeine, and 6 nM ^3H-AZT were tested for direct binding to 12 ug of beta-amyloid-42 oligomer (20% biotin). Assay conditions were the same as described in saturation binding assay. […]
Data analyses were performed using Sigma Plot or GraphPad Prism® version 4. Curves were fitted using non-linear regression. KD values and IC50 values were estimated from the binding curves.
For the competition binding assay between tritium-labeled 49b and various unlabeled benzofuran analogs, assays contained 130 nM ^3H-49b and 50 uM of each of the unlabeled benzofuran analogs. As controls, 10 uM and 50 uM of unlabeled 49b were included in the assays.

The target in a further test is T2, soluble A-beta (1-42) (Homo sapiens, UniProt P05067).
T2 construct: 1 mg of human beta-amyloid 1-42 (H-5642, Bachem); purchased Bachem H-5642; host or cells: synthetic peptide
The experiment in a line: Fluorescence titration assay, soluble A-beta. It is filed as binding. The conditions noted are these: for Kd: read-out: KD of compound to soluble A-beta (1-42). The method, then:
A. 1 mg of human beta-amyloid 1-42 (H-5642, Bachem) and 500 uL of 1,1,1,3,3,3 hexafluoro-2-propanol (HFIP) (Aldrich) were chilled in separate bottles on ice for 30 mins. Cold beta-amyloid 1-42 was solubilized with cold HFIP. The mixture was incubated for 1 hr at room temperature until it turned clear. The resulting solution was then dried to a film under vacuum. The film was dissolved again in cold HFIP and incubated another 1 hr at room temperature. The resulting solution was separated into aliquots in several microcentrifuge tubes. HFIP was removed under vacuum, and the films were stored at −20° C. until use. To prepare soluble oligomer, the film was dissolved in appropriate amount of dry DMSO (Sigma), and Ham's F12 media (Biosource) or PBS (Sigma, D8537) was added and incubated at 4° C. for 24 hours (final concentration of 200 uM or 0.9 mg/mL beta-amyloid in 2% DMSO). The tube containing the soluble oligomers was centrifuged at 13,000 rpm for 5 mins, and its supernatant was transferred to a clean tube.
(§1) Fresh solutions of 2-4 mM probe in methanol were appropriately diluted with PBS (pH 7.4) to obtain assay solutions with final concentration range of 0.1 nM to 100 μM probe in 300-400 μL PBS (pH 7.4, 2% methanol) with 10 μM A-beta (1-40) fibrils or 6.6 μM soluble A-beta (1-42). A duplicate series of assay solutions were aliquoted with the volume of soluble A-beta or fibrils replaced by PBS. The set of solutions with probe and soluble/fibrillar A-beta and the duplicate set without A-beta were prepared and the fluorescence spectra measured in triplicate. Spectral changes in the probe's fluorescence emission spectra that were unique to the presence of A-beta indicated specific binding interactions between the probe and A-beta species. This unique spectral change allowed for the determination of the probe's binding affinity. Fluorescence emission spectra for binding affinity determinations are measured with fluorometric instrumentation known to those skilled in the art, including at least a spectrofluorometer and spectrograph. Equilibrium dissociation constants were calculated using a one-site saturation model of binding.

Another test concerns the target T3, A-beta (1-40) fibrils (Homo sapiens, UniProt P05067).
T3 construct: Lyophilized human beta-amyloid 1-40 peptide (Catalog number H-1194, Bachem); purchased Bachem H-1194; host or cells: synthetic peptide
The test can be described thus: Fluorescence titration assay, fibrils. It is filed as binding. The conditions noted are these: for Kd: read-out: KD of compound to insoluble A-beta (1-40) fibrils; for binding to A-beta (1-40) fibrils: fluorescence binding assays, stated in words. On the procedure: B. Insoluble A-beta (1-40) fibril formation: Lyophilized human beta-amyloid 1-40 peptide (Catalog number H-1194, Bachem) was solubilized with HFIP to produce a dry clear film following the process described above for beta-amyloid 1-42. The clear film of beta-amyloid 1-40 was diluted with distilled water to achieve a 6 mg/mL concentration. […] The clear solution was diluted to 1 mg/mL with PBS, pH 7.4 to obtain a final concentration of 1 mg/mL beta-amyloid 1-40, and then incubated at 37° C. on an orbital shaker at 200 RPM for 4 days. A cloudy solution was produced, and the fibril production was confirmed by measuring changes in fluorescence of Thioflavin T, as well as by atomic force microscopy and transmission electron microscopy. Fibrils were used immediately after their production was confirmed.
as §1

Test [2] has as its system beta-amyloid in PDAPP mouse brain sections. The test can be described thus: Histochemical staining on PDAPP transgenic mouse brain sections. Type of test: binding. The conditions noted are these: 24-month old PDAPP, carbonate extraction buffer to remove soluble material. The method, then:
3-month old and 24-month old PDAPP mouse brains were obtained from Eli Lilly (Indianapolis, Ind.). Fresh frozen 30 micron sections of the brains were fixed in 10% formalin. For 49b, or Thioflavin S staining, 1 mM stock solutions of 49b and Thioflavin S were prepared in 50% ethanol. The probes were diluted to 25 μM in 50% ethanol, and then applied onto the PDAPP brain sections. The slides were incubated in a humid chamber at room temperature for 1 hr. The slides were washed three times with PBS and mounting medium (Molecular Probes) was added. The slides were incubated at least 4-6 hours before imaging. For the carbonate pre-treatment of the brain sections, formalin-fixed sections were incubated with 100 μL of carbonate buffer containing 0.025 M sodium chloride and 0.1 M sodium carbonate for 45 mins at 37° C. The slides were washed three times with PBS, then 49b or Thioflavin S were applied on the slides as described above. Microscopic examination and imaging was performed using a Leica wide-field fluorescence microscope using filter cube A for 49b and cube E4 for Thioflavin S. Co-staining of the probes with 6E10 anti-beta-amyloid antibody in the PDAPP brain sections was described in the ex vivo assay using naïve rats.

The target of test [3] is T1, beta-amyloid 1-42 oligomer (20% biotin). The experiment in a line: Scintillation proximity assay (SPA), direct/saturation binding of tritium labeled probe to soluble oligomers. The conditions noted are these: 90 nM 3H-cimetidine, 14 nM 3H-caffeine, 6 nM 3H-AZT; 12 ug oligomer. In general terms: In a scintillation proximity assay essentially only radioactivity close to the scintillant gives light.
Protocol: For SPA and atomic force microscopy (AFM) experiments, preparations of soluble oligomers and fibrils contained 20% biotinylated beta-amyloid 1-42 and 1-40, respectively (H-5642, H-5914, Bachem).
For the saturation-binding assay, isotopic dilution of radiolabeled 49b with unlabeled 49b was performed. ^3H-49b was added to 500 uM of unlabeled 49b to a final concentration of 50 μCi/mL ^3H-49b. The probe solution was then serially diluted in PBS to give six solutions giving 6.6, 13.1, 26.3, 52.5, 105, or 210 uM in the final assay well. Each concentration of the probe solution was incubated with 12 μg beta-amyloid 1-42 oligomer (20% biotin) or 1-40 (20% biotin) fibrils in a total volume of 90 μl. Assays were incubated at room temp for 2 hrs before addition of 10 μL YSi-streptavidin (0.25 mg) SPA bead. Assays were set-up in triplicate in 96-well NBS plates (Costar). Assays were incubated overnight and counted the following morning. […] Assay conditions were the same as described in saturation binding assay.
A direct binding assay using tritium labeled 49b was performed against oligomers or fibrils by scintillation proximity assay (SPA). Beta-amyloid containing 20% biotin and tritiated 49b were incubated in solution for two hours prior to addition of the Ysi-Streptavidin beads.

The mark [4] stands for this setting: 6.6 μM soluble A-beta (1-42), PBS pH 7.4, 2% methanol.
Setting [5] is: 10 μM A-beta (1-40) fibrils, PBS pH 7.4, 2% methanol.

T1 sequence (P05067 672-713 limits assumed): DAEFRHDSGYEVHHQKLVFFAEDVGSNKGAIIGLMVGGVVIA
T2 sequence (P05067 672-713 limits assumed): as above
T3 sequence (P05067 672-711 limits assumed): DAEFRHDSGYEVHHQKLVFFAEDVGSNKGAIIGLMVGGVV
Chain of beta-amyloid in PDAPP mouse brain sections (P05067 672-711 limits assumed): as above

As usually defined, the inhibition is the relative decrease from the control value, in per cent. High values mean a strong effect, low ones a weak effect. Regarding `CC(=O)OCc1c(-c2ccc(C(O)c3ccc(F)c(Cl)c3)o2)oc2ccccc12` (stereo not shown) [Compound 8c], the inhibition at 50 µM in test [1] is 51%. `CCOC(=O)c1ccc(C(O)c2ccc(-c3oc4ccccc4c3COC(C)=O)o2)o1` (stereo not shown) [Compound 12c] registered an inhibition at 50 µM in test [1] of 59%. `OCc1c(-c2ccc(-c3c(-c4ccccc4)ncn3CCF)o2)oc2ccccc12` [Compound 5c]: 50 µM produced 48% inhibition in test [1].

In test [1], `COCCN1CCN(Cc2ccc(-c3oc4ccccc4c3COC(C)=O)o2)CC1` [Compound 4c] yielded an inhibition at 50 µM of 41%.

As a reminder, the Kd is a measure of binding affinity in units of concentration. For the molecule `Cc1cc(-c2oc3ccccc3c2C)ccc1F` [Compound 39b], the Kd was over 100 µM on soluble A-beta (1-42) (setting [4]) and 1.68 µM at A-beta (1-40) fibrils (setting [5]). Moreover, the “binding to A-beta (1-40) fibrils” value on A-beta (1-40) fibrils is given as “specifically binds”. As to `N#Cc1ccc(C(O)c2ccc(-c3oc4ccccc4c3CO)o2)cc1` (stereo not shown) [Compound 6c], the inhibition at 50 µM in test [1] is 51%. Consider `CC(=O)OCc1c(-c2ccc(CN3CCN(c4ccc(C#N)cc4)CC3)o2)oc2ccccc12` [Compound 1c], for which at 50 µM the inhibition in test [1] was 24%. On the same count and under the same terms, to `COC(=O)[C@H](C(C)C)n1cnc(-c2ccccc2)c1-c1ccc(-c2oc3ccccc3c2CO)o1` [Compound 2c] belongs 30%. Regarding `CC(=O)OCc1c(-c2ccc(CN3CCN(c4ccc(Cl)cc4)CC3)o2)oc2ccccc12` [Compound 9c], in test [1], the inhibition at 50 µM came to 55%. The molecule `CC(=O)OCc1c(-c2ccc(CN3CCN(c4ccc(C(F)(F)F)cc4)CC3)o2)oc2ccccc12` [Compound 13c] displayed an inhibition at 50 µM in test [1] of 60%. In turn, `OCc1c(-c2ccc(-c3cncn3CCF)o2)oc2ccccc12` [Compound 11c] gave an inhibition at 50 µM in test [1] of 58%. As for `COc1ccc(N2CCN(Cc3ccc(-c4oc5ccccc5c4COC(C)=O)o3)CC2)cc1` [Compound 3c], the inhibition at 50 µM in test [1] was found to be 38%.

Turning to `CC(=O)OCc1c(-c2ccc(CN3CCN(c4ccc(C)cc4)CC3)o2)oc2ccccc12` [Compound 14c], the inhibition at 50 µM in test [1] is 60%. As for Thioflavin S [reference compound], the “staining of carbonate pre-treated brain sections” value in test [2] is recorded as “staining remained”.

Consider `Cc1cc(-c2oc3ccccc3c2C(=O)c2ccccc2)ccc1F` [Compound 38b], for which the “KD of compound to soluble A-beta (1-42)” value at soluble A-beta (1-42) (setting [4]) is “Nonspecific binding”. Further, the “binding to soluble A-beta (1-42)” value on soluble A-beta (1-42) (fluorescence binding assays, stated in words) is “neither binds”. Further, at A-beta (1-40) fibrils (setting [5]), the “KD of compound to insoluble A-beta (1-40) fibrils” value is “Nonspecific binding”. At A-beta (1-40) fibrils, the “binding to A-beta (1-40) fibrils” value was “neither binds”. `CN/C(=N/CCSCc1nc[nH]c1C)NC#N` [cimetidine, reference compound]: the “direct binding of tritium labeled probe to soluble oligomers” value in test [3] is on record as “did not bind”.

As to `CC(=O)OCc1c(-c2ccc(C=O)o2)oc2ccccc12` [Compound 7c], at 50 µM the inhibition in test [1] was 51%. For the molecule `COc1cc(-c2oc3ccccc3c2CO)cc(OC)c1OC` [Compound 37b], the equilibrium dissociation constant (Kd) on soluble A-beta (1-42) (setting [4]) is 0.022 µM and 0.0228 µM; at A-beta (1-40) fibrils (setting [5]), over 100 µM. For the same molecule, the “increase in fluorescence intensity (and quantum yield) with soluble A-beta” value at soluble A-beta (1-42) (relative to compound in 2% methanol in PBS) is reported as “approximately 5 times”. For the same molecule, at A-beta (1-40) fibrils, the “binding to A-beta (1-40) fibrils” value is reported as “minimal specific binding”. As for `CCOC(=O)c1ccc(C(O)c2ccc(-c3oc4ccccc4c3CO)o2)o1` (stereo not shown) [Compound 10c], in test [1], testing at 50 µM gave an inhibition of 57%. In test [1], `OCc1c(-c2ccc(C(O)CCC3OCCCO3)o2)oc2ccccc12` (stereo not shown) [Compound 15c] came in with an inhibition at 50 µM of 68%.
